“And” between values parts separate entries of the source, which are not always exact repeats. Equal entries are not always repeated. Where two headings read alike, the source gives them in different places.
Tests used:
[1] = Pharmacokinetics, single oral gavage, CD-1 mice; assay type: in vivo, female CD-1 mice; settings: female, CD-1, mouse, plasma
Description: CFMQ (HGT3711) was administered to fasted female CD-1 mice (n=18/dose group) by a single oral gavage at 100, 250 and 450 mg/kg in a dose volume of 5 mL/kg in a spray-dried dispersion formulation (discussed below). Blood samples were taken via cardiocentesis or abdominal vein prior to administration and at 10, 30, 60 (1 hr), 120 (2 hr), 240 (4 hr) and 480 (8 hr) minutes post dose. Plasma concentrations of CFMQ (HGT3711) were determined by LC-MS/MS (liquid chromatography mass spectrometry) and concentrations below the limit of quantitation (3 ng/mL) were assigned a value of zero for pharmacokinetic analysis. Nominal dosing concentrations were used in all calculations.

[2] = Cross-over PK, IV and PO, cynomolgus monkeys; assay type: in vivo, male cynomolgus monkey
Description: A cross-over PK (pharmacokinetic) analysis was conducted in cynomolgus monkey. Two fasted male monkeys in each dose group received a single 1.0 mg/kg dose of CFMQ (HGT3711) by either IV (intravenous) or PO (oral) administration, with a 7-day washout period between each dose. The dose concentration was 1.0 mg/mL with a dose volume of 1.0 mL/kg. Blood samples were collected via the femoral vein at 0.083 (5 min), 0.25 (15 min), 0.5 (30 min), 1, 1.5, 2, 3, 4, 6, 8, 18 and 24 hours post-dose. Plasma concentrations of CFMQ (HGT3711) were determined by LC-MS/MS and concentrations below the limit of quantitation (2.5 ng/mL) were assigned a value of zero for pharmacokinetic analysis. Following oral administration of CFMQ (1 mg/kg), the concentration of CFMQ in plasma was below the limit of quantitation (BLQ=<2.5 ng/ml) at each sampling time point, preventing assessment of pharmacokinetic properties of CFMQ after oral administration in monkeys in this study. Table 11 summarizes the average PK properties for IV and PO dosed groups.

[3] = Pharmacokinetics, single oral gavage, Yucatan mini-pig; assay type: in vivo, female Yucatan Miniature Swine; settings: PO 10 mg/kg
Description: CFMQ (HGT3711) was administered to female Yucatan Miniature Swine (mini-pig; n=3) by a single oral gavage at 10 mg/kg (concentration 2 mg/mL) at a dose volume of […]. This study utilized the spray-dried dispersion (SDD) (50; 50 with polymer; HPMCAS) formulation of CFMQ (HGT3711) (see below). Blood samples were taken via jugular or other suitable vein puncture prior to administration and at 0.083 (5 min), 0.25 (15 min), 0.50 (30 min), 1, 2, 4, 8, 12 and 24 hours post dose. Plasma concentrations of CFMQ (HGT3711) were determined by LC-MS/MS.

[4] = tested on: diverse set of receptors; experiment: Receptor binding and selectivity panel
Description: (§1) To determine the affinity to the B2-bradykinin receptor, CFMQ was compared to a diverse set of receptors and reference agents in an in vitro assay using cells from rat heart, urinary bladder, cerebral cortex, as well as human recombinant cells (CHO and HEK 293) and other cell lines. Each assay included a ligand at a specific concentration (concentration ranging from 0.007-10 nM), in addition to a non-specific ligand (concentration ranging from […]) for incubation periods ranging from 15 minutes to 6 hours at 4°-37° C. The specific binding to the receptors was defined as the difference between the total binding and the nonspecific binding, determined in the presence of an excess of unlabeled CFMQ. The concentration causing a half-maximal inhibition of control specific binding (IC50 values) and inhibition constants (Ki) were determined, and each reference compound was within the accepted limits of the historic average (±0.5 log units).

[5] = target: T1, A3 (h) (Homo sapiens, UniProt P0DMS8); experiment: Off-target receptor binding: A3
T1 construct: expressed in transfected cells; host or cells: CHO or HEK 293 (not assigned per receptor)
T1 sequence (P0DMS8 1-318): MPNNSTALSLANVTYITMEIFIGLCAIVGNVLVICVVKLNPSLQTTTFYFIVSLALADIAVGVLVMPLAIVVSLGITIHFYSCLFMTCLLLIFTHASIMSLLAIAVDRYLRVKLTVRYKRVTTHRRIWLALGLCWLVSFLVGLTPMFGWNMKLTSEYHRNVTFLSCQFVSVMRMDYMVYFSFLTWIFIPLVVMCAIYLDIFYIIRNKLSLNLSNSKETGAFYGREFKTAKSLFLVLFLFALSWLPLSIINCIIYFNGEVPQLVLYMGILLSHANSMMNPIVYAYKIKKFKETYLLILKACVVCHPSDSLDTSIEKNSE
Description: as §1

[6] = 100 mg/kg, read-out: Average Concentration of HGT3711
[7] = 250 mg/kg, read-out: Average Concentration of HGT3711
[8] = 450 mg/kg, read-out: Average Concentration of HGT3711
[9] = 450 mg/kg, n = 2, read-out: Average Concentration of HGT3711
[10] = male, cynomolgus monkey, plasma, IV (1 mg/kg), Mean
[11] = female, Yucatan, minipig, plasma

With `Cc1cc(Cl)c(COc2cccc3c(-n4cc(F)cn4)cc(C)nc23)c(Cn2cccc(C#N)c2=O)n1` [CFMQ, 1-((4-Chloro-3-(((4-(4-fluoro-1H-pyrazol-1-yl)-2-methylquinolin-8-yl)oxy)methyl)-6-methylpyridin-2-yl)methyl)-2-oxo-1,2-dihydropyridine-3-carbonitrile] the AUC(0-inf) ([1]; 100 mg/kg) was 10500 ng·h/mL, the AUC(0-t) ([1]; 100 mg/kg) was 10500 ng·h/mL and the Cmax ([1]; 100 mg/kg) was 5300 ng/mL. For the same compound, the concentration at 10 min [1, 6] was 5300 ng/mL, the concentration at 30 min [1, 6] was 4100 ng/mL and the concentration at 60 min [1, 6] was 5170 ng/mL. For the same compound, the concentration at 120 min [1, 6] was 2200 ng/mL, the concentration at 240 min [1, 6] was 78 ng/mL and the concentration at 480 min [1, 6] was 18 ng/mL. For the same compound, the AUC(0-inf) ([1]; 250 mg/kg) was 24500 ng·h/mL, the AUC(0-t) ([1]; 250 mg/kg) was 24400 ng·h/mL and the Cmax ([1]; 250 mg/kg) was 13300 ng/mL. The concentration at 10 min [1, 7] was 6250 ng/mL, the concentration at 30 min [1, 7] was 13300 ng/mL and the concentration at 60 min [1, 7] was 10400 ng/mL. For the same compound, the concentration at 120 min [1, 7] was 4570 ng/mL, the concentration at 240 min [1, 7] was 854 ng/mL and the concentration at 480 min [1, 7] was 45 ng/mL. The AUC(0-inf) ([1]; 450 mg/kg) was 40900 ng·h/mL, the AUC(0-t) ([1]; 450 mg/kg) was 40800 ng·h/mL and the Cmax ([1]; 450 mg/kg) was 15800 ng/mL. The concentration at 10 min [1, 8] was 11600 ng/mL, the concentration at 30 min [1, 8] was 14600 ng/mL and the concentration at 60 min [1, 9] was 15800 ng/mL. The concentration at 120 min [1, 9] was 6440 ng/mL, the concentration at 240 min [1, 8] was 3370 ng/mL and the concentration at 480 min [1, 8] was 88 ng/mL. The “Vz as fold of the total body water (0.69 L/kg)” value ([2]; IV 1 mg/kg) was 4.32 fold, the “systemic clearance as % of monkey hepatic blood flow (2.62 L/hr/kg)” value ([2]; IV 1 mg/kg) was 57.63% and the “ACU(0-∞)” value ([2]; IV (1 mg/kg), Mean) was 693.99 μg/L*hr. For the same compound, the CLz ([2]; IV (1 mg/kg), Mean, 1 mg/kg) was 25.2 ± 6.83 mL/min/kg and 25.2 mL/min/kg, the t1/2z ([2]; IV (1 mg/kg), Mean, 1 mg/kg) was 1.40 ± 0.24 h and 1.40 h and the AUC(0-t) [2, 10] was 679 ng·h/mL. It also gave a Cmax [2, 10] of 410 ng/mL, a Tmax [2, 10] of 0.23 h and an MRT inf ([2]; male, cynomolgus monkey, plasma, IV (1 mg/kg), Mean, read-out: MRT(0-∞)) of 1.77 h. For the same compound, the Cmax ([2]; male, cynomolgus, cynomolgus monkey, plasma, IV (1 mg/kg), Mean) was 410 ± 107 ng/mL, the Vd ([2]; male, cynomolgus, cynomolgus monkey, plasma, IV (1 mg/kg), Mean, read-out: Vz) was 2.98 ± 0.55 L/kg and the “concentration of CFMQ in plasma” value ([2]; oral 1 mg/kg, at each sampling time point (below limit of quantitation)) was less than 2.5 ng/mL. The “oral bioavailability” value ([2]; oral 1 mg/kg, monkey) was “no bioavailability”, the “clinical observations” value ([3]; mini-pig) was “no abnormal clinical observations” and the AUC(0-inf) [3, 11] was 11100 ng·h/mL. It also gave an AUC(0-t) [3, 11] of 10600 ng·h/mL, a half-life [3, 11] of 57 h and a concentration at 4 hr ([3]; female, Yucatan, pig (miniature swine), plasma, 4.0 hr, read-out: Average Concentration of HGT3711) of 1150 ng/mL. For the same compound, the concentration at 8 hr ([3]; female, Yucatan, pig (miniature swine), plasma, 8.0 hr, read-out: Average Concentration of HGT3711) was 284 ng/mL, the concentration at 12 hr ([3]; female, Yucatan, pig (miniature swine), plasma, 12 hr, read-out: Average Concentration of HGT3711) was 112 ng/mL and the concentration at 24 hr ([3]; female, Yucatan, pig (miniature swine), plasma, 24 hr, read-out: Average Concentration of HGT3711) was 14.2 ng/mL. The concentration at 0 hr ([3]; female, Yucatan, pig (minipig), plasma, 0 hr, read-out: Average Concentration of HGT3711) was 0 ng/mL, the concentration at 0.25 hr ([3]; female, Yucatan, pig (minipig), plasma, 0.25 hr, read-out: Average Concentration of HGT3711) was 80 ng/mL and the concentration at 0.5 hr ([3]; female, Yucatan, pig (minipig), plasma, 0.5 hr, read-out: Average Concentration of HGT3711) was 596 ng/mL. The concentration at 1 hr ([3]; female, Yucatan, pig (minipig), plasma, 1.0 hr, read-out: Average Concentration of HGT3711) was 1560 ng/mL, the concentration at 2 hr ([3]; female, Yucatan, pig (minipig), plasma, 2.0 hr, read-out: Average Concentration of HGT3711) was 2060 ng/mL and the “binding selectivity for B2-bradykinin receptor” value [4] was “selective”. It also gave an IC50 [5] of 7.6 µM, a Ki [5] of 4.5 µM and a nH [5] of 1.4. The inhibition at 10 µM ([5]; CFMQ at 10 μM) was 53%.
